Source: patent EP4786487A1, “PEPTIDE” (Peptidream Inc, priority 2023, dated 2025)
Where two headings read alike, the source gives them in different places. Starred links: 1 amine or outer side, 2 acyl side, 3 side chain; linkers in the order of their positions; H or OH if unused. Positions of bridges follow the written chain, without caps; N, C: chain ends. Non-standard residues stand in square brackets, D forms with d. Residues, ends and D or L forms follow the SMILES beside them. *: point of attachment. Phe(3-OCH2COOH) = N[C@@H](Cc1cccc(OCC(=O)O)c1)C(=O)O; Phe(3-CONH2) = NC(=O)c1cccc(C[C@H](N)C(=O)O)c1; Phe(4-COOH) = N[C@@H](Cc1ccc(C(=O)O)cc1)C(=O)O; Trp(6-aza) = N[C@@H](Cc1c[nH]c2cnccc12)C(=O)O; Trp(7-aza) = N[C@@H](Cc1c[nH]c2ncccc12)C(=O)O; Piperidinyl(4-CH2COOH) = O=C(O)CC1CCN(*)CC1; Gly(decyl) = CCCCCCCCCC[C@H](N)C(=O)O; Gly(N(CH2)3COOH) = O=C(O)CCCNCC(=O)O; Gly(octyl) = CCCCCCCC[C@H](N)C(=O)O; X1 = CCCCCCC[C@H](N[*:1])C(=O)[*:2]; NMeF = CN[C@@H](Cc1ccccc1)C(=O)O; 4Pal = N[C@@H](Cc1ccncc1)C(=O)O; NMeE = CN[C@@H](CCC(=O)O)C(=O)O; Aoc(2) = CCCCCC[C@H](N)C(=O)O; hSer = N[C@@H](CCO)C(=O)O; Carboxymethyl = O=C(O)C*; NMeA = CN[C@@H](C)C(=O)O; NEtG = CCNCC(=O)O; Sar = CNCC(=O)O; nBu = CCCC*

Columns and labels:
Format in all cases: cell-based
GDF-11 = target: T1, GDF-11 (Homo sapiens, UniProt O95390); assay: Reporter gene assay for myostatin signaling in HepG2 cell line, Evaluation Procedure (1), GDF-11 inhibition; details: read-out: IC50 (Luciferase) GDF-11 HepG2
T1 construct: purchased R&D systems 1958-GD-G8/CF
T1 sequence (O95390 299-407): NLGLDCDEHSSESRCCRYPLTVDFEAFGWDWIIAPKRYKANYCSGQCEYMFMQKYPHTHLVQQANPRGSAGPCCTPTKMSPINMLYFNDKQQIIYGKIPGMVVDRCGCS
Outline: (§1)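 HepG2 cells transfected with pGL3(CAGA)12-luciferase reporter, serum-starved in 0.1% BSA medium, then stimulated with myostatin or GDF-11 plus 4-fold peptide dilutions (0.006–100 nmol/L for myostatin, 0.12–2000 nmol/L for GDF-11) for 20–24 h at 37 °C. Luminescence read with One-Glo; IC50 calculated.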

Myostatin [1] = assay: Reporter gene assay for myostatin signaling in HepG2 cell line, Evaluation Procedure (1), myostatin inhibition; details: GDF-11 IC50 versus Myostatin IC50
Outline: as §1

Myostatin [2] = target: T2, Myostatin (Homo sapiens, UniProt O14793); assay: as above; details: read-out: IC50 (Luciferase) Myostatin HepG2
T2 construct: active myostatin (also called mature myostatin) is a homodimer consisting of two C-terminal growth factor domains; purchased R&D systems 788-G8/CF
T2 sequence (O14793 267-375): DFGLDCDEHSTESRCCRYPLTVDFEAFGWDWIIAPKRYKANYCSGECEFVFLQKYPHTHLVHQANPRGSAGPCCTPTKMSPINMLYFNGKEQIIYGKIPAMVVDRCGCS
Outline: as §1

Row | SMILES | IC50 (GDF-11; Method A: GDF-11 10 ng/mL) [nM] | Selectivity (Myostatin [1]; Method A) | IC50 (Myostatin [2]; Method A: Myostatin 10 ng/mL) [nM] | IC50 (GDF-11; Method B: GDF-11 1 ng/mL) [nM] | Selectivity (Myostatin [1]; Method B) | IC50 (Myostatin [2]; Method B: Myostatin 1 ng/mL) [nM]
1 | CCCCCC[C@@H]1NC(=O)[C@H](Cc2ccccc2)N(C)C(=O)[C@H](CCCNC(=N)N)NC(=O)[C@H](Cc2ccc(C(=O)O)cc2)NC(=O)[C@H](Cc2cccc(OCC(=O)O)c2)NC(=O)CN(C)C(=O)[C@H]([C@@H](C)CC)NC(=O)[C@H](Cc2ccccc2)N(C)C(=O)[C@H](Cc2ccc(O)cc2)NC(=O)[C@H](Cc2c[nH]c3ccccc23)NC(=O)[C@H](C)NC(=O)[C@H](C)NC(=O)CSC[C@H](C(=O)O)NC(=O)[C@H](Cc2ccccc2)N(C)C(=O)[C@H](C)N(C)C1=O [Myostatin_99_v207] ({CH2CO}-AAWY[NMeF]I[Sar][Phe(3-OCH2COOH)][Phe(4-COOH)]R[NMeF][Aoc(2)][NMeA][NMeF][dC]-OH; thioether N-15) | 270 | 77 | 3.5 |  |  | 
2 | CCCCCCCCCC[C@@H]1NC(=O)[C@H](Cc2ccccc2)N(C)C(=O)[C@H](CCCNC(=N)N)NC(=O)[C@H](Cc2ccc(C(=O)O)cc2)NC(=O)[C@H](Cc2cccc(OCC(=O)O)c2)NC(=O)CN(CC)C(=O)[C@H]([C@@H](C)CC)NC(=O)[C@H](Cc2ccccc2)N(C)C(=O)[C@H](Cc2ccc(O)cc2)NC(=O)[C@H](Cc2c[nH]c3cnccc23)NC(=O)[C@H](C)NC(=O)[C@H](C)NC(=O)CSC[C@H](C(=O)N2CCC(CC(=O)O)CC2)NC(=O)[C@H](Cc2ccccc2)N(C)C(=O)[C@H](CCC(=O)O)N(C)C1=O [Myostatin_99_v339] ({CH2CO}-AA[Trp(6-aza)]Y[NMeF]I[NEtG][Phe(3-OCH2COOH)][Phe(4-COOH)]R[NMeF][Gly(decyl)][NMeE][NMeF][dC]-{Piperidinyl(4-CH2COOH)}; thioether N-15) |  |  |  | 128 | 144.7 | 0.89
3 | CC[C@H](C)[C@@H]1NC(=O)[C@H](Cc2ccccc2)N(C)C(=O)[C@H](Cc2ccc(O)cc2)NC(=O)[C@H](Cc2c[nH]c3ccccc23)NC(=O)[C@H](C)NC(=O)CN(CCCC(=O)O)C(=O)CSC[C@H](C(=O)O)NC(=O)[C@H](Cc2ccccc2)N(C)C(=O)[C@H](C)N(C)C(=O)[C@H](CC(C)C)NC(=O)[C@H](Cc2ccccc2)N(C)C(=O)[C@H](CCCNC(=N)N)NC(=O)[C@H](Cc2ccc(C(=O)O)cc2)NC(=O)[C@H](Cc2ccc(O)cc2)NC(=O)[C@H](C)N(C)C1=O [Myostatin_99_v178] ({CH2CO}-[Gly(N(CH2)3COOH)]AWY[NMeF]I[NMeA]Y[Phe(4-COOH)]R[NMeF]L[NMeA][NMeF][dC]-OH; thioether N-15) | 250 | 21 | 12.1 |  |  | 
4 | CC[C@H](C)[C@@H]1NC(=O)[C@H](Cc2ccccc2)N(C)C(=O)[C@H](Cc2ccc(O)cc2)NC(=O)[C@H](Cc2c[nH]c3ncccc23)NC(=O)[C@H](C)NC(=O)CN(CCCC(=O)O)C(=O)CSC[C@H](C(=O)O)NC(=O)[C@H](Cc2ccccc2)N(C)C(=O)[C@H](C)N(C)C(=O)[C@H](CC(C)C)NC(=O)[C@H](Cc2ccccc2)N(C)C(=O)[C@H](CCCNC(=N)N)NC(=O)[C@H](Cc2cccc(C(N)=O)c2)NC(=O)[C@H](Cc2ccccc2)NC(=O)CN(C)C1=O [Myostatin_99_v45] ({CH2CO}-[Gly(N(CH2)3COOH)]A[Trp(7-aza)]Y[NMeF]I[Sar]F[Phe(3-CONH2)]R[NMeF]L[NMeA][NMeF][dC]-OH; thioether N-15) | 332 | 26 | 12.8 |  |  | 
5 | CCCCCCCCCC[C@@H]1NC(=O)[C@H](Cc2ccccc2)N(C)C(=O)[C@H](CCCNC(=N)N)NC(=O)[C@H](Cc2ccc(C(=O)O)cc2)NC(=O)[C@H](Cc2cccc(OCC(=O)O)c2)NC(=O)[C@H](C)N(C)C(=O)[C@H]([C@@H](C)CC)NC(=O)[C@H](Cc2ccccc2)N(C)C(=O)[C@H](Cc2ccc(O)cc2)NC(=O)[C@H](Cc2c[nH]c3ccccc23)NC(=O)[C@H](C)NC(=O)CN(CCCC(=O)O)C(=O)CSC[C@H](C(=O)O)NC(=O)[C@H](Cc2ccccc2)N(C)C(=O)[C@H](C)N(C)C1=O [Myostatin_99_v198] ({CH2CO}-[Gly(N(CH2)3COOH)]AWY[NMeF]I[NMeA][Phe(3-OCH2COOH)][Phe(4-COOH)]R[NMeF][Gly(decyl)][NMeA][NMeF][dC]-OH; thioether N-15) | 90 | 123 | 0.7 |  |  | 
6 | CCCCCCC[C@@H]1NC(=O)[C@H](Cc2ccccc2)N(C)C(=O)[C@H](CCCNC(=N)N)NC(=O)[C@H](Cc2ccc(C(=O)O)cc2)NC(=O)[C@H](Cc2cccc(OCC(=O)O)c2)NC(=O)CN(C)C(=O)[C@H]([C@@H](C)CC)NC(=O)[C@H](Cc2ccccc2)N(C)C(=O)[C@H](Cc2ccc(O)cc2)NC(=O)[C@H](Cc2c[nH]c3ncccc23)NC(=O)[C@H](CO)NC(=O)[C@H](C)NC(=O)CSC[C@H](C(=O)O)NC(=O)[C@H](Cc2ccccc2)N(C)C(=O)[C@H](C)N(C)C1=O [Myostatin_99_v160] ({CH2CO}-AS[Trp(7-aza)]Y[NMeF]I[Sar][Phe(3-OCH2COOH)][Phe(4-COOH)]R[NMeF][X1][NMeA][NMeF][dC]-OH; thioether N-15) | 350 | 109 | 3.2 |  |  | 
7 | CCCCCCCC[C@@H]1NC(=O)[C@H](Cc2ccccc2)N(C)C(=O)[C@H](CCCNC(=N)N)NC(=O)[C@H](Cc2ccc(C(=O)O)cc2)NC(=O)[C@H](Cc2cccc(OCC(=O)O)c2)NC(=O)[C@H](C)N(C)C(=O)[C@H]([C@@H](C)CC)NC(=O)[C@H](Cc2ccccc2)N(C)C(=O)[C@H](Cc2ccc(O)cc2)NC(=O)[C@H](Cc2c[nH]c3ccccc23)NC(=O)[C@H](C)NC(=O)CN(CCCC(=O)O)C(=O)CSC[C@H](C(=O)O)NC(=O)[C@H](Cc2ccccc2)N(C)C(=O)[C@H](C)N(C)C1=O [Myostatin_99_v199] ({CH2CO}-[Gly(N(CH2)3COOH)]AWY[NMeF]I[NMeA][Phe(3-OCH2COOH)][Phe(4-COOH)]R[NMeF][Gly(octyl)][NMeA][NMeF][dC]-OH; thioether N-15) | 159 | 133 | 1.2 |  |  | 
8 | CCCCCCCCCC[C@@H]1NC(=O)[C@H](Cc2ccccc2)N(C)C(=O)[C@H](CCCNC(=N)N)NC(=O)[C@H](Cc2ccc(C(=O)O)cc2)NC(=O)[C@H](Cc2cccc(OCC(=O)O)c2)NC(=O)CN(C)C(=O)[C@H]([C@@H](C)OC)NC(=O)[C@H](Cc2ccccc2)N(C)C(=O)[C@H](Cc2ccc(O)cc2)NC(=O)[C@H](Cc2c[nH]c3cnccc23)NC(=O)[C@H](C)NC(=O)[C@H](C)NC(=O)CSC[C@H](C(=O)N2CCC(CC(=O)O)CC2)NC(=O)[C@H](Cc2ccccc2)N(C)C(=O)[C@H](CCC(=O)O)N(C)C1=O [Myostatin_99_v341] ({CH2CO}-AA[Trp(6-aza)]Y[NMeF]T(Me)[Sar][Phe(3-OCH2COOH)][Phe(4-COOH)]R[NMeF][Gly(decyl)][NMeE][NMeF][dC]-{Piperidinyl(4-CH2COOH)}; thioether N-15) |  |  |  | 132 | 173.9 | 0.76
9 | CC[C@H](C)[C@@H]1NC(=O)[C@H](Cc2ccccc2)N(C)C(=O)[C@H](Cc2ccc(O)cc2)NC(=O)[C@H](Cc2c[nH]c3ccccc23)NC(=O)[C@H](C)NC(=O)CN(CCCC(=O)O)C(=O)CSC[C@H](C(=O)O)NC(=O)[C@H](Cc2ccccc2)N(C)C(=O)[C@H](C)N(C)C(=O)[C@H](CC(C)C)NC(=O)[C@H](Cc2ccccc2)N(C)C(=O)[C@H](CCCNC(=N)N)NC(=O)[C@H](Cc2ccc(OCC(=O)O)cc2)NC(=O)[C@H](Cc2cccc(OCC(=O)O)c2)NC(=O)[C@H](C)N(C)C1=O [Myostatin_99_v124] ({CH2CO}-[Gly(N(CH2)3COOH)]AWY[NMeF]I[NMeA][Phe(3-OCH2COOH)]Y(Carboxymethyl)R[NMeF]L[NMeA][NMeF][dC]-OH; thioether N-15) | 2270 | 133 | 17.1 |  |  | 
10 | CC[C@H](C)[C@@H]1NC(=O)[C@H](Cc2ccccc2)N(C)C(=O)[C@H](Cc2ccc(O)cc2)NC(=O)[C@H](Cc2c[nH]c3ccccc23)NC(=O)[C@H](C)NC(=O)[C@H](C)NC(=O)CSC[C@H](C(=O)O)NC(=O)[C@H](Cc2ccccc2)N(C)C(=O)[C@H](C)N(C)C(=O)[C@H](CC(C)C)NC(=O)[C@H](Cc2ccccc2)N(C)C(=O)[C@H](CCCNC(=N)N)NC(=O)[C@H](Cc2ccc(C(=O)O)cc2)NC(=O)[C@H](Cc2ccc(O)cc2)NC(=O)CN(C)C1=O [Myostatin_99_v172] ({CH2CO}-AAWY[NMeF]I[Sar]Y[Phe(4-COOH)]R[NMeF]L[NMeA][NMeF][dC]-OH; thioether N-15) | 173 | 34 | 5.1 |  |  | 
11 | CCCCOCC[C@@H]1NC(=O)[C@H](Cc2ccccc2)N(C)C(=O)[C@H](CCCNC(=N)N)NC(=O)[C@H](Cc2ccc(C(=O)O)cc2)NC(=O)[C@H](Cc2ccncc2)NC(=O)CN(C)C(=O)[C@H]([C@@H](C)CC)NC(=O)[C@H](Cc2ccccc2)N(C)C(=O)[C@H](Cc2ccc(O)cc2)NC(=O)[C@H](Cc2c[nH]c3ccccc23)NC(=O)[C@H](C)NC(=O)CN(CCCC(=O)O)C(=O)CSC[C@H](C(=O)O)NC(=O)[C@H](Cc2ccccc2)N(C)C(=O)[C@H](C)N(C)C1=O [Myostatin_99_v227] ({CH2CO}-[Gly(N(CH2)3COOH)]AWY[NMeF]I[Sar][4Pal][Phe(4-COOH)]R[NMeF][hSer](nBu)[NMeA][NMeF][dC]-OH; thioether N-15) | 683 | 33 | 20.8 |  |  | 
